Measurements published in patent publication US12642799B2, “Composition and method for treating COVID-19” (University of South Florida, priority 2021, dated 2026).

Experiments:
[1] = tested on: SARS CoV-2 (variants) infected Calu3 cells; format: cell-based
[2] = tested on: TNFα, IL-6; format: cell-based

Row | Molecule | inhibition of viral replication (SARS CoV2 N protein mRNA) [1] | inhibition of inflammatory cytokine production (TNFα, IL-6 mRNA) [2]
1 | N[C@@H](CC(=O)N1CCn2c(nnc2C(F)(F)F)C1)Cc1cc(F)c(F)cc1F [sitagliptin] | equally effective | equally effective
2 | sitagliptin monohydrate phosphate | equally effective | equally effective
